Measurements from PubChem BioAssay (NCI).
“And” between values parts separate entries of the source, which are not always exact repeats. Equal values may be shown once.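 All cell lines were grown in 96-well plates and treated with compound for 48 hours. GI50 is the concentration that inhibits growth by half. At the TGI there is no net growth.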

Assays:
Assay in all cases: DTP human tumour cell line panel, 48 h
[1] = system: RXF 393 renal
[2] = system: OVCAR-3 ovarian
[3] = system: UACC-62 melanoma
[4] = system: CAKI-1 renal
[5] = system: MDA-MB-435
[6] = system: HCT-116 colon
[7] = system: KM12 colon
[8] = system: SR leukemia
[9] = system: SK-OV-3 ovarian
[10] = system: SK-MEL-5 melanoma

SMILES | GI50 [1] | TGI [1] | GI50 [2] | TGI [2] | GI50 [3] | TGI [3] | GI50 [4] | TGI [4] | GI50 [5] | TGI [5] | GI50 [6] | TGI [6] | GI50 [7] | TGI [7] | GI50 [8] | TGI [8] | GI50 [9] | TGI [9] | GI50 [10] | TGI [10]
C=CCN1C=CC(=O)[C@H](O[Si](C)(C)C(C)(C)C)[C@@H]1/C=C/c1ccccc1 | 19000 nM | 46100 nM | 14000 nM | 27800 nM | 12100 nM | 26700 nM | 15700 nM | 32700 nM | 12300 nM | 30600 nM | 6960 nM | 19900 nM | 13100 nM | 28700 nM | 5210 nM | 26100 nM | 14900 nM | 28600 nM | 7330 nM | 20000 nM
Cc1ccc(C(=O)C(Cl)C(Cl)c2ccc(C)cc2)cc1 (centres undefined) | – | 23400 nM | – | 11200 nM | – | 10900 nM | – | 5530 nM | – | 10800 nM | – | 4000 nM | – | 13900 nM | – | 6680 nM | – | 30700 nM | – | 6680 nM
O=c1[nH]ccc2nc(N3CCC(O)CC3)nc(Nc3cccc(C(F)(F)F)c3)c12 | 1450 nM | 23200 nM | 1340 nM | 3980 nM | 1840 nM | 6950 nM | 282 nM | 6300 nM | 1290 nM | 3550 nM | 880 nM | 12300 nM | 1440 nM | 5420 nM | 707 nM | 26900 nM | 486 nM | > 100000 nM | 1230 nM | 2500 nM
CC(C)CNc1nc(-c2ccccc2)nc2ccccc12 | 12700 nM | 31800 nM | 15700 nM | 31000 nM | 14600 nM | 29400 nM | 15400 nM | 29800 nM | 18500 nM | 37900 nM | 13800 nM | 26700 nM | 12700 nM | 26400 nM | 10100 nM | 30900 nM | 15300 nM | 31300 nM | 15200 nM | 29000 nM
COc1cc2cc(C(=O)Nc3cc(N)c4ccccc4c3CCCl)[nH]c2c(OC)c1OC | 8.75 nM | 21.9 nM | 26.2 nM | – | 71.7 nM | 154 nM | 19.3 nM | – | 48.3 nM | 159 nM | 17.7 nM | 5830 nM | 41.1 nM | 667 nM | < 5 nM | 80.4 nM | 60.3 nM | – | 68.8 nM | 195 nM
Cc1cc(N2CCN(c3ccnc4cc(Cl)ccc34)CC2)nc(NC2CCCCC2)n1 | 1710 nM | 3790 nM | 1900 nM | 3900 nM | 1660 nM | 3340 nM | 1630 nM | 3600 nM | 1490 nM | 2960 nM | 1320 nM | 2910 nM | 2560 nM | 6270 nM | 1930 nM | 4730 nM | 2020 nM | 4510 nM | 1730 nM | 3300 nM
CN(C)C1CCN(C(=O)c2ccc(NC(=O)Nc3ccc(-c4nc(N5CCOCC5)nc(N5CCOCC5)n4)cc3)cc2)CC1 | 23 nM and 27.1 nM and 210 nM | – | 14.8 nM and 13.9 nM and 28.2 nM | 603 nM and 366 nM and 935 nM | 23.3 nM and 16.9 nM and 12.5 nM | 109 nM and 121 nM and 127 nM | 4160 nM and 1490 nM and 496 nM | – | 14.8 nM and 13 nM and 22.1 nM | 133 nM and 284 nM and 324 nM | 28.9 nM and 44.1 nM and 35.9 nM | 5910 nM and 2500 nM and 2800 nM | 35.5 nM and 42.3 nM and 43.7 nM | 7730 nM and 2500 nM and 2360 nM | 66.6 nM and 12.3 nM | – | < 10 nM and 7.32 nM and 20.4 nM | 48.5 nM and 43.4 nM and 188 nM | 61.3 nM and 548 nM | 323 nM and 2180 nM
C=C1C(=O)[C@@]23CC1C(O)[C@@H](OC(C)=O)[C@@H]2C1(C)C(OC(C)=O)C[C@@H](OC(C)=O)C(C)(C)[C@@H]1C[C@H]3OC(C)=O (some centres undefined) | 362 nM and 1.8 µg/mL | 4.21 µM and 5.35 µg/mL | > 10 µM and 3.93 µg/mL | > 10 µM and 8.34 µg/mL | 1.77 µg/mL | 3.53 µg/mL | 3.03 µg/mL | > 10 µM and 8.66 µg/mL | 2.88 µg/mL | 9.51 µg/mL | 1.45 µM and 1.46 µg/mL | 2.98 µM and 2.89 µg/mL | > 10 µM and 5.94 µg/mL | > 10 µM and 17.1 µg/mL | 1.7 µM and 0.255 µg/mL | 4.6 µM and 1.63 µg/mL | > 10 µM and 16.5 µg/mL | > 10 µM and 30.2 µg/mL | 2.69 µM and 5.05 µg/mL | 9.01 µM and 16.5 µg/mL
COC(=O)c1c2c(c(C)[n+]([O-])c1C)C(=O)C=C(NCc1ccc(OC)cc1)C2=O | 2020 nM | 5990 nM | 795 nM | 2290 nM | 850 nM | 2510 nM | 1500 nM | 6810 nM | 598 nM | 1150 nM | 2400 nM | 7080 nM | 1670 nM | 6630 nM | 3500 nM | > 100000 nM | 3080 nM | 9300 nM | 607 nM | 1210 nM
c1cc(OCCN2CCCCC2)ccc1CNc1ccc2nc(CCC3CCCCC3)[nH]c2c1 | 1500 nM | 3490 nM | 1730 nM | 3500 nM | 1950 nM | 3470 nM | 1960 nM | 3930 nM | 1630 nM | 3090 nM | 1640 nM | 3570 nM | 2420 nM | 6170 nM | 617 nM | 3010 nM | 2070 nM | 4180 nM | 1630 nM | 3010 nM
COc1ccc(CNc2c3ccccc3nc3ccc(OC)cc23)cc1 | 1520 nM | 3040 nM | 2610 nM | 8680 nM | 1790 nM | 3750 nM | 1760 nM | 3720 nM | 1990 nM | 6320 nM | 2550 nM | 11600 nM | 3300 nM | 12400 nM | 1860 nM | 5810 nM | 4830 nM | 17200 nM | 1950 nM | 3870 nM
